Measured values from ChEMBL document CHEMBL5653610, “The novel phosphodiesterase 10A inhibitor THPP-1 has antipsychotic-like effects in rat and improves cognition in rat and rhesus monkey” (Neuropharmacology, 2013).
Calls of active or inactive are those of the source. The calls are words filed in the database; no cut-off is given here.

What was measured:
Rattus norvegicus [1] = experiment: In-vivo increase of GluR1 S845 phosphorylation in membrane fraction of Wistar Hannover rat striatal tissues at 3 to 30 mg/kg, po after 2 hrs by Western blot analysis; format: functional, organism-based; conditions: Striatum, dose 3-30 mg/kg
Rattus norvegicus [2] = experiment: In-vivo increase of pGluR1/GluR1 ratios in membrane fraction of Wistar Hannover rat striatal tissues at 3 to 30 mg/kg, po after 2 hrs by Western blot analysis; format: functional, organism-based; conditions: Striatum, dose 3-30 mg/kg
Rattus norvegicus [3] = experiment: In-vivo increase of ERK in membrane fraction of Wistar Hannover rat striatal tissues at 30 mg/kg, po after 2 hrs by Western blot analysis relative to control; format: functional, organism-based; conditions: Striatum
[4] = Clearance in orally dosed rat after 2 hrs by UPLC-MS analysis; format: ADME, organism-based; conditions: in vivo, route po
Rattus norvegicus [5] = experiment: In-vivo increase of CREB phosphorylation in membrane fraction of Wistar Hannover rat striatal tissues at 10 mg/kg, po after 2 hrs by Western blot analysis relative to control; format: functional, Striatum
[6] = Drug level in Wistar Hannover rat CSF at 10 mg/kg, po after 2 hrs by UPLC-MS analysis; format: ADME, organism-based, Cerebrospinal fluid; conditions: read-out: Drug uptake
Rattus norvegicus [7] = experiment: Effect on total levels of GluR1 protein in membrane fraction of Wistar Hannover rat striatal tissues at 3 to 30 mg/kg, po by Western blot analysis; format: functional, organism-based; conditions: Striatum, dose 3-30 mg/kg
[8] = Total drug level in plasma of Wistar Hannover rat engaged in object retrieval detour task at 3 mg/kg, po dosed for 4 days prior to testing and on day 5 drug was administered orally 2 h prior to testing and measured after 4 hrs by UPLC-MS analysis; format: ADME, organism-based; conditions: time 5 day
Rattus norvegicus [9] = experiment: Antipsychotic activity in Wistar Hannover rat assessed as reduction in MK-801-induced psychomotor activity at 3 mg/kg, po for 14 days followed by drug dosing at 3 mg/kg, po 120 mins before MK-801 challenge; format: functional, organism-based; conditions: time 20280.0 min
[10] = Total drug level in Wistar Hannover rat plasma at 10 mg/kg, po after 2 hrs by UPLC-MS analysis; format: ADME, organism-based
[11] = Half life in orally dosed rhesus monkey after 4 hrs by UPLC-MS analysis; format: ADME, organism-based, Macaca mulatta; conditions: in vivo, route po
[12] = Total drug level in Wistar Hannover rat plasma at 0.3 mg/kg, po after 2 hrs by UPLC-MS analysis; format: ADME, organism-based
Rattus norvegicus [13] = experiment: Reduction in object exploration in Wistar Hannover rat at 1 mg/kg, po dosed 90 mins before identical objects by novel object recognition test; format: functional, organism-based
[14] = Total drug level in Wistar Hannover rat plasma at 30 mg/kg, po after 2 hrs by UPLC-MS analysis; format: ADME, organism-based
[15] = Drug level in Wistar Hannover rat CSF at 0.1 mg/kg, po after 2 hrs by UPLC-MS analysis; format: ADME, organism-based, Cerebrospinal fluid; conditions: read-out: Drug uptake
[16] = Protein binding in orally dosed dog plasma after 2 hrs by UPLC-MS analysis; format: ADME, organism-based, Canis lupus familiaris; conditions: route po, read-out: PPB (converted)
[17] = Unbound drug level in plasma of Wistar Hannover rat not-engaged in object retrieval detour task at 10 mg/kg, po dosed for 4 days prior to testing and on day 5 drug was administered orally 2 h prior to testing and measured after 4 hrs by UPLC-MS analysis; format: ADME, organism-based; conditions: in vivo, 120 h, time 5 day
[18] = Unbound drug level in plasma of Wistar Hannover rat engaged in object retrieval detour task at 3 mg/kg, po dosed for 4 days prior to testing and on day 5 drug was administered orally 2 h prior to testing and measured after 4 hrs by UPLC-MS analysis; format: ADME, organism-based; conditions: in vivo, 120 h, time 5 day
Rattus norvegicus [19] = experiment: Antipsychotic activity in Wistar Hannover rat assessed as increase in recognition at 1 mg/kg, po dosed 90 mins before identical objects by novel object recognition test; format: functional, organism-based
[20] = Bioavailability in orally dosed dog after 2 hrs by UPLC-MS analysis; format: ADME, organism-based, Canis lupus familiaris; conditions: in vivo, route po
[21] = Total drug level in Wistar Hannover rat plasma at 1 mg/kg, po after 2 hrs by UPLC-MS analysis; format: ADME, organism-based
[22] = Unbound drug level in Wistar Hannover rat plasma at 30 mg/kg, po after 2 hrs by UPLC-MS analysis; format: ADME, organism-based; conditions: in vivo
[23] = Total drug level in plasma of […] engaged in object retrieval detour task at 10 mg/kg, po dosed for 4 days prior to testing and on day 5 drug was administered orally 2 h prior to testing and measured after 4 hrs by UPLC-MS analysis; format: ADME, organism-based; conditions: time 5 day
[24] = Protein binding in orally dosed rhesus monkey plasma after 4 hrs by UPLC-MS analysis; format: ADME, organism-based, Macaca mulatta; conditions: route po, read-out: PPB (converted)
Rhesus monkey = experiment: Antipsychotic activity in rhesus monkey assessed as attenuation of ketamine impaired performance on difficult trials at 3 mg/kg, po dosed for 4 days prior to testing and on day 5 drug was administered orally 2 h prior to testing by object retrieval detour task; format: functional, organism-based; conditions: Macaca mulatta, time 4.0 day
[25] = Protein binding in orally dosed rat plasma after 2 hrs by UPLC-MS analysis; format: ADME, organism-based; conditions: route po, read-out: PPB (converted)
[26] = Unbound drug level in Wistar Hannover rat plasma at 0.3 mg/kg, po after 2 hrs by UPLC-MS analysis; format: ADME, organism-based; conditions: in vivo

## COCCOc1nc(-c2ccc(Cl)nc2)nc2c1CN(C(=O)c1ncn3ccccc13)CC2 [THPP-1]
Rattus norvegicus [1]
  Activity: Dose-Dependent Effect
Rattus norvegicus [2]
  Activity: Active
Rattus norvegicus [3]
  Activity: Dose-Dependent Effect
[4]
  CL/F: 6 mL/min/kg
Rattus norvegicus [5]
  fold change (FC): 2.3
[6]
  concentration at 2 h: 16.1 nM
Rattus norvegicus [7]
  Activity: inactive
[8]
  concentration at 120 h: 592 nM
Rattus norvegicus [9]
  Activity: Active
[10]
  concentration at 2 h: 1320 nM
[11]
  half-life: 1.4 h
[12]
  concentration at 2 h: 117 nM
Rattus norvegicus [13]
  Activity: Active
[14]
  concentration at 2 h: 1800 nM
[15]
  concentration at 2 h: 1 nM
[16]
  fraction unbound at 2 h: 0.03
[17]
  Cp(f): 34 nM
[18]
  Cp(f): 7 nM
Rattus norvegicus [19]
  Activity: Active
[20]
  bioavailability: 79%
[21]
  concentration at 2 h: 270 nM
[22]
  Cp(f): 32.5 nM
[23]
  concentration at 120 h: 1600 nM
[24]
  fraction unbound at 4 h: 0.012
Rhesus monkey
  Activity: Active
[25]
  fraction unbound at 2 h: 0.018
[26]
  Cp(f): 2.1 nM
